48 compounds from the SangsterLogP compilation can be followed below.

A short description of series [1]: method code SF-AS, from DOI: 10.5012/bkcs.2007.28.7.1183.
The nature of series [2]: method code SF-HPLC, from DOI: 10.1016/j.ejmech.2008.06.022, PMID: 18687506. Particulars: pH 7.4.
The nature of series [3]: from Tomlinson, E.; Davis, S.; Parr, G.; James, M.; Farraj, N.; Kinkel, J.; Gaisser, D.; Wynne, H. (1986). The filter-probe extractor: a versatile tool for the rapid determination of solute oil/water ….
Series [4] is described as follows: method code SF-HPLC, from DOI: 10.1002/jps.22717, PMID: 21837649. The settings on record: pH 7.4.
Assay in series [5]: not given
This is another data set of the same source.

A short description of series [6]: method code SF-AS, from DOI: 10.1016/0891-5849(92)90146-8, PMID: 1334029. The settings on record: pH 2.0.
Series [7] in a line: method code SF, from DOI: 10.1021/jm00151a007, PMID: 3941412. The settings on record: pH 9.0.
A short description of series [8]: method code SF-RC, from DOI: 10.1111/j.1399-3054.1990.tb08712.x.
Series [9] can be described thus: method code SF-AS, from PMID: 582409. The settings on record: pH 7.4.
Series [10] is described as follows: method code SF-AS, from DOI: 10.1016/j.ejmech.2007.07.011, PMID: 17869385. Particulars: pH 7.4.
Series [11] is described as follows: method code SF-HPLC, from DOI: 10.1021/jm00109a018, PMID: 2033591. Particulars: pH 7.0.
Series [12] can be described thus: method code SF, from DOI: 10.1016/0304-4165(80)90351-7, PMID: 6243999. The settings on record: pH 7.4.
Series [13] in a line: method code SF-AS, from PMID: 7646571. The settings on record: pH 7.0.
Series [14] is described as follows: method code SF-AS, from DOI: 10.1016/0014-5793(79)80862-5, PMID: 478007.
The nature of series [15]: method code SF-GLC, from Hashimoto, S.; Schneider, S.; Yamamoto, T.; Morita, M. (1994). Aqueous solubility and octanol-water partition coefficient of 3,3',4,4'-tetrachloroazobenzene. 20, 125-128.
Assay in series [16]: not given
This is another data set of the same source.

Series [17] can be described thus: method code G-GLC, from DOI: 10.1021/es00171a006.
Assay in series [18]: not given
The source holds these as a separate data set.

Assay in series [19]: not given
The source holds these as a separate data set.

Assay in series [20]: not given
This is another data set of the same source.

Assay in series [21]: not given
This is another data set of the same source.

Assay in series [22]: not given
This is another data set of the same source.

Series [23] can be described thus: method code SF, from DOI: 10.1021/jf60167a006.
Series [24] can be described thus: method code SF-RC, from DOI: 10.1016/j.nucmedbio.2008.01.001, PMID: 18355684. Particulars: pH 7.4.
Assay in series [25]: not given
This is another data set of the same source.

Assay in series [26]: not given
The source holds these as a separate data set.

The nature of series [27]: method code SF-HPLC, from DOI: 10.1002/ps.2780170106. Particulars: pH 2.0.
Series [28] is described as follows: method code SF, from DOI: 10.1016/0223-5234(94)90060-4. Particulars: pH 7.4.
The nature of series [29]: method code SF-HPLC, from DOI: 10.3109/03639045.2012.690417, PMID: 22670797.
Assay in series [30]: not given
This is another data set of the same source.

Series [31] in a line: method code SF-GLC, from DOI: 10.1016/s0380-1330(82)71969-0.
Series [32] is described as follows: method code SF-F, from DOI: 10.1021/js950367f, PMID: 8901074.
Series [33] is described as follows: method code SF-AS, from DOI: 10.1111/j.2042-7158.1988.tb06996.x, PMID: 2907534. Particulars: pH 7.0.
Assay in series [34]: not given
This is another data set of the same source.

Series [35] can be described thus: method code SF-HPLC, from DOI: 10.1002/ps.2780440103. The settings on record: pH 2.0.
Assay in series [36]: not given
The source holds these as a separate data set.

Assay in series [37]: not given
This is another data set of the same source.

The nature of series [38]: method code SF-RC, from DOI: 10.1016/j.bmc.2005.04.014, PMID: 15911305. The settings on record: pH 7.4.
Series [39] is described as follows: method code SF, from DOI: 10.1016/s0223-5234(98)80007-x.
Assay in series [40]: not given
The source holds these as a separate data set.

Assay in series [41]: not given
The source holds these as a separate data set.

Assay in series [42]: not given
This is another data set of the same source.

The nature of series [43]: method code SF, from PMID: 7412765. The settings on record: pH 7.0.
Assay in series [44]: not given
The source holds these as a separate data set.

Series [45] can be described thus: from Gehmann, K., Nyfeler, R., Leadbeater, A. J., Nevill, D. J., & Sozzi, D. (1990). CGA 173506: A new phenylpyrrole fungicide for broad-spectrum disease control. In Brighton Crop Protection Conference, ….
Series [46] in a line: method code SF, from DOI: 10.1002/ps.2780290303. Particulars: pH 5.0.
Assay in series [47]: not given
This is another data set of the same source.

The logP is the decadic logarithm of the partition coefficient of the neutral form, usually between octanol and water. A word on the logD: it is lipophilicity at a set pH, counting ionised and neutral species. Read a high logD as a more lipophilic compound.

`CC1(C)NC(=O)N(c2ccc([N+](=O)[O-])c(C(F)(F)F)c2)C1=O` displayed a logP of 2.31.

On to `Cc1cc(C)nc(NS(=O)(=O)c2ccc(N)cc2)n1`, for which the logP in series [1] is 0.21.

`CC(=O)NCC(=O)NN=Nc1ccc(C#N)cc1` showed a logD in series [2] of 1.1.

On to `CNC(=O)[C@H](Cc1ccccc1)NC(C)=O`, for which the logP in series [3] was 0.5.

Turning to `CCN1CCCc2cc(F)ccc21`, in [4], the logD amounted to 2.82.

In [5], `O=[N+]([O-])c1nccn1CC(O)COc1ccccc1` (stereo not drawn) had a logP of 1.4.

With `CC(=O)C(=Cc1cc(O)c(O)c([N+](=O)[O-])c1)C(C)=O`, the logD in series [6] amounted to 1.21.

For `CNc1c(NCCSCc2nc[nH]c2C)c(=O)c1=O`, the logD in series [7] is -0.08.

In series [8], `O=C(O)Cc1cccc2ccccc12` showed a logP of 2.24.

Consider `Nc1nc(N)c2nc(-c3ccc(O)cc3)c(N)nc2n1`, for which the logD in [9] is 0.92.

In series [10], `Cc1c(O)c(=O)ccn1CCCn1ccnc1` showed a logD of -0.46.

Take `Cc1nc2c(N)ncnc2n1[C@@H]1O[C@H](CO)C[C@@H]1F`: in [11], the logD stood at 0.1.

`CC(=O)NC1CC(C)(C)N(O)C(C)(C)C1`: the logD in series [12] worked out at 0.52.

Take `Cn1c(=O)[nH]c2ncn(CC(C)(C)C)c2c1=O`: the logD in series [13] stood at 0.6.

`C#CC(C)N(C)C(=O)Nc1ccc(Cl)cc1` (stereo not drawn) yielded a logP in series [14] of 3.

The compound `Clc1ccc(/N=N/c2ccc(Cl)c(Cl)c2)cc1Cl` came in with a logP in series [15] of 5.53.

In turn, `COc1ccc(Cc2cnc(N)nc2N)cc1Cl` displayed a logP in series [16] of 1.65.

Take `Clc1c(Cl)c(Cl)c2c(oc3c(Cl)c(Cl)c(Cl)c(Cl)c32)c1Cl`: in series [17], the logP worked out at 7.59.

On to `O=C(O)CCCn1c(=O)oc2ccccc2c1=O`, for which, in [18], the logP was 0.2.

For the compound `CC1=C(C)C(O)N(c2ccccc2)C1=O` (stereo not drawn), the logP in series [19] is 1.63.

In [20], `Clc1cc(Cl)c(-c2cc(Cl)c(Cl)cc2Cl)cc1Cl` displayed a logP of 6.67.

In turn, `Cc1cccc2cccc(C)c12` gave a logP in [21] of 4.26.

On to `Cc1[nH]cnc1CSCCNc1cc[nH]c(=O)n1`, for which the logP in [22] was -0.4.

In turn, `CCOP(=O)(OCC)Oc1ccc(S(C)(=O)=O)cc1` registered a logP in [23] of 0.

The compound `CCCSc1nsnc1C1=CCCN(C)C1` came in with a logD in series [24] of 2.9.

In turn, `c1nnnn1C12CC3CC(CC(C3)C1)C2` returned a logP in series [25] of 2.95.

As for `Clc1cc2c(oc3c(Cl)c(Cl)c(Cl)cc32)c(Cl)c1Cl`, the logP in series [26] worked out at 6.6.

In [27], `O=C(O)COc1cccc2ccccc12` had a logD of 2.6.

Take `CC(=O)Nc1ccn(C2CSC(COC(C)=O)O2)c(=O)n1` (stereo not drawn): the logD in series [28] is 0.88.

In [29], `CC(C)(C)c1ccc(NC(N)=S)cc1` yielded a logP of 2.6.

As to `CCCCCOc1ccc(O)cc1`, in [30], the logP turned out to be 3.26.

Regarding `Clc1cc(-c2ccccc2)c(Cl)c(Cl)c1Cl`, in series [31], the logP is 5.9.

`COc1c2ccoc2cc2oc(=O)ccc12`: the logP in series [32] was 2.

In the case of `CCC1(c2ccccc2)C(=O)NC(=O)NC1=O`, the logD in [33] amounted to 1.32.

Turning to `CCCCc1ccc(C(=O)O)cc1`, the logP in series [34] is 3.7.

As to `O=C(O)[C@H]1O[C@@H](Oc2ccc([N+](=O)[O-])cc2)[C@H](O)[C@@H](O)[C@@H]1O`, the logD in series [35] is -0.75.

`CNC(=O)OCc1nc(SC)n(C)c1COC(=O)NC` yielded a logP in [36] of 0.74.

Consider `CCc1cccc2ccccc12`, for which, in series [37], the logP came to 4.38.

Compound `Nc1nc(OCc2cccc(I)c2)c2nc[nH]c2n1` gave a logD in series [38] of 2.2.

In [39], `Cc1nc2n(c1C)CNc1ccccc1-2` yielded a logP of 2.07.

Take `CC[C@@H]1C(=O)OC[C@@H]1Cc1cncn1C`: the logP in [40] turned out to be 0.66.

With `Nc1nc(N)c2nc(-c3ccccc3)c(N)nc2n1`, the logP in series [41] turned out to be 1.24.

On to `CN(C)C(=O)CNCc1ccccc1`, for which, in series [42], the logP is 1.11.

`CCCC(C)C1(CC)C(=O)NC(=O)NC1=O` (stereo not drawn) had a logD in [43] of 1.75.

In series [44], `CCNc1nc(NC(C)C(C)C)nc(SC)n1` (stereo not drawn) displayed a logP of 3.76.

Compound `N#Cc1c[nH]cc1-c1cccc2c1OC(F)(F)O2` returned a logP in series [45] of 2.6.

Take `COC(=O)c1sccc1S(=O)(=O)NC(=O)Nc1nc(OC)nc(OC)n1`: the logD in series [46] came to 0.52.

Regarding `CN1C(=O)NC(=O)C(C)(C2=CCCCC2)C1=O` (stereo not drawn), the logP in [47] worked out at 1.71.
